US7132286B2, “Method for neural stem cell differentiation using valproate” (Psychiatric Genomics, Inc., priority 2001, dated 2006)
Entries after “also recorded” stand apart in the source; their conditions may differ.

How the values were obtained:
[1] = system: teratocarcinoma cell line NTera-2; details: NTera-2 cells (Skladchikova et al.); cited from earlier work
[2] = system: glutamate decarboxylase (GAD); experiment: Western blot of GAD 65/67 expression in rat cortical stem cell cultures; format: cell-based; details: 0.5 mM valproate
Protocol: Western blotting. Cells were plated at 1×10^6 cells/100 mm dish in poly-1-ornithine-coated 10 cm dishes and treated as described supra. Denatured proteins were separated on 8% polyacrylamide Tris-Glycine gels (Novex) and transferred to nitrocellulose membranes (BioRad). Membranes were probed with antibodies against rabbit anti-GAD 65/67 (Sigma) at 1:10,000 and HRP-conjugated anti-rabbit (Jackson Immunolabs) at 1:10,000 respective dilutions. Antigen-antibody complexes were visualized using a SuperSignal West Pico Chemiluminescent Kit (Pierce).

[3] = system: rat cortical stem cells; experiment: Neuronal differentiation of rat cortical stem cells (β-tubulin III immunofluorescence, cell counting); format: cell-based
From the text: Isolation of cortical and striatal stem cells. Timed pregnant Sprague Dawley rats were obtained from Taconic at embryonic age E14–E15 were sacrificed by inhalation of excess carbon dioxide. The abdomen of the rat was cleaned with 70% ethanol and the uterus was removed quickly and aseptically on the bench top. The uterus was placed in ice cold HBSS (GIBCO Cat. #20012-027) in a 10 cm petridish. After rinsing the uterus in PBS, embryos were removed from the uterus, rinsed in HBSS and collected in cold HBSS (buffered with HEPES and sodium bicarbonate) in a 10 cm petridish and placed on ice.
Plating, expansion and passaging of cortical and striatal stem cells. A generous amount of the triturated cell suspension was left in the original 15 ml tube to avoid fibroblast contamination in cultures. About 4–5 ml of the 6 ml of cells suspension was used for plating. Cells were plated at a concentration of 1.3×10^3 cells to 3.0×10^3 per cm^2 in 100 mm dish. This culture is designated P0 (passage 0).
(§1) Following plating cells were expanded for about 3–4 days (Passage 1, P1). Cells were treated daily with 10 ng/ml bFGF. The cultures were never permitted to reach more than 70% confluency. Cultures were then passaged as follows: 10 ml of HBSS without Ca^2+ and Mg^2+ was added to each 100 mm dish and the cells incubated at 37° C. for 5–15 minutes, or until sufficient numbers of the stem cells were rounded up. It is not expected that all cells in the culture will round up as there are several cell types in the culture at P0. The pH of the HBSS should be neutral at all times during this incubation. Cells were then removed from the dish by pipetting with a 5 ml pipette, and collected in a 15 or 50 ml conical tube, and centrifuged at 1000 g for 5 minutes. Cells were gently re-suspended in medium, counted, and plated at a density of 1×10^6 cells in 10 cm dishes and expanded for about 2 days in bFGF (Passage 1, P1). At that time the cells were passaged as described and plated onto pre-coated poly-L-ornithine/fibronectin vessels at concentrations indicated below for each experiment. Cells were treated with bFGF for 2 additional days. Before each treatment the bFGF was removed from the cells by washing twice with DMEM/F 12 to induce cell differentiation. For neurite outgrowth experiments, cells were seeded at 5×10^3 cells/well in 24-well plates and treated immediately.
Drug treatment. For immunofluorescence and Western analysis, cells were treated daily with either 0.5 mM of valproate (Sigma), 10 ng/ml of BDNF (R & D Systems), 20 ng/ml of NT-3 (R & D Systems), 1 nM 9cis retinoic acid (Sigma) or a dilution of NCM for 6 or 7 days. In some experiments valproate was also added with NCM and/or 9cis RA for 7 days. For human stem cell experiments, valproate (0.5 mM) or BDNF (25 ng/ml) was added for 9 days. For neurite outgrowth experiments, cells were treated for 1 day with 0.5 mM valproate or 50 ng/ml of BDNF. Where applicable, medium was changed every 2 days. After about 5–10 days, preferably on day 6 (i.e., after 6 days of drug exposure) the cells were fixed with a 4% solution of para-formaldehyde (PFA) in PBS, prepared as follows:
Immunofluorescent staining and visualization. Cells were plated at 20,000 cells/well in poly-L-ornithine/fibronectin (1 mg/ml) coated 24-well plates. After fixation, the PBS was aspirated from the fixed cells and the cells were treated with blocking solution (10% normal goat serum-NGS-Jackson Labs), 0.3% Triton-Sigma, in PBS) to saturate non-specific sites and permeabilize the cells. […]

[4] = system: rat stem cells from ventral forebrain i.e. the lateral ganglionic eminence (LGE); experiment: Neuronal differentiation of rat stem cells from ventral forebrain (lateral ganglionic eminence); format: cell-based; details: data not shown
Protocol: Isolation of cortical and striatal stem cells. […] The abdomen of the rat was cleaned with 70% ethanol and the uterus was removed quickly and aseptically on the bench top.
Removal of meninges is not possible at this age, and no attempt was made to do so. If the dissected tissue was in large enough chunks and settle to the bottom of the tube, no centrifugation was performed. Alternatively, the tube was centrifuged at 1000 rpm for 5 minutes to pellet the tissue. Following centrifugation, the 15 ml tube containing the tissue was sprayed with 70% ethanol and taken into the sterile hood.
About 4–5 ml of the 6 ml of cells suspension was used for plating. […] This culture is designated P0 (passage 0).
The cultures were never permitted to reach more than 70% confluency. […] It is not expected that all cells in the culture will round up as there are several cell types in the culture at P0. The pH of the HBSS should be neutral at all times during this incubation.

[5] = system: rat cortical stem cells; experiment: Neurite outgrowth of neurons derived from rat cortical stem cells (ArrayScan neurite outgrowth index); format: cell-based; details: 1 day; 0.5 mM valproate, 50 ng/ml BDNF; control 35.1+0.3
Protocol: as §1, with “At that time the cells were passaged as described and plated onto pre-coated poly-L-ornithine/fibronectin vessels at concentrations indicated below for each experiment. Cells were treated with bFGF for 2 additional days. Before each treatment the bFGF was removed from the cells by washing twice with DMEM/F 12 to induce cell differentiation. For neurite outgrowth experiments, cells were seeded at 5×10^3 cells/well in 24-well plates and treated immediately.” left out
For analysis of neurite outgrowth, digital images were taken with an ArrayScan HCS System (Cellomics, Pa.) of 100 cells/well treated with valproate (0.5 mM) and BDNF (50 ng/ml) for 1 day. […] Neurite outgrowth index is defined as the percentage of cells whose neurites total more than 20 μm in length, and is calculated using Cellomics' Neurite Outgrowth application.

[6] = system: β tubulin-III; experiment: Western blot of β tubulin-III expression in rat cortical stem cells; format: cell-based; details: valproate 1 day
[7] = rat cortical stem cells, 6 days, vs control

CCCC(CCC)C(=O)O [valproate, 2-Propylpentanoic acid]
proliferation and retinoic acid-induced neuronal differentiation [1]: inhibit the proliferation and block retinoic acid-induced neuronal differentiation
GAD expression ([2]; 3 and 6 days): GAD expression was increased; also recorded: increases GAD expression after 3 and 6 days
GAD expression ([2]; 1 day): No expression of GAD was detectable
increase of percentage of β-tubulin III expressing neurons over the control ([3]; rat cortical neural stem cells, 6 days): ~5 fold
morphology of neurons ([3]; rat cortical stem cells, 6 days valproate): growing in clusters and had longer process than cells in control
effect on neuronal differentiation (percentage of β-tubulin-III expressing cells) in words [3, 7]: increases neuronal differentiation more efficiently than neurotrophins or growth factors
effect on number of neurons per field [3, 7]: increases the number of neurons
effect on total cell number (proliferation), bis-benzimide nuclei [3, 7]: without valproate affecting the total cell number; also recorded: total number of cells is comparable to control; also recorded: does not inhibit neural stem cell proliferation
percentage of β-tubulin III expressing neurons (mean+SD) ([3]; rat cortical stem cells, daily treatment 6 days, 0.5 mM valproate, 10 ng/ml BDNF, 20 ng/ml NT-3, untreated control 6.2+1.8%): 25.8+0.8%
neuronal differentiation compared to control, in words ([3]; rat cortical stem cells, daily treatment 7 days, 0.5 mM valproate, 0.5× NCM, 1 nM 9-cis RA): increased the neuronal differentiation
maximum percentage of neurons ([3]; valproate added with 9-cis RA and NCM, 7 days, rat cortical stem cells): 60%
percentage and number of neurons [4]: increased the percentage and number of neurons
neurite index (percentage of cells whose neurites total more than 20 μm in length) [5]: 49+1.9
β-tubulin III expression by Western blot [6]: increase of β-tubulin III expression; also recorded: increases β tubulin-III expression
